Test results from patent publication US20240174693A1, “SOMATOSTATIN RECEPTOR SUBTYPE 4 (SSTR4) AGONISTS AND THEIR APPLICATIONS” (Humanwell Pharmaceutical US, priority 2022, published 2024).

Legend:
SD rats = assay: SD rat carrageenan acute inflammation model; type: in vivo; conditions: SD rat carrageenan
Procedure: Using an electronic caliper for accuracy, the thickness of the rat's footpad was measured. Rats were then restrained, and 100 μl of 1% carrageenan was subcutaneously injected into the right hind footpad to induce inflammation, thereby establishing an acute inflammation model using carrageenan. Each compound was administered in advance according to the respective dosing time points. The swelling of the rat's foot was measured at various time points: before modeling (0 h) and after modeling (2, 4, 7 h). A comparison was made between footpad swelling before and after modeling. […] The results of the carrageenan-induced acute inflammation model experiment are depicted in FIG. 1.

SSTR4 = molecular target: T1, SSTR4 (Homo sapiens, UniProt P31391); assay: FLIPR assay for agonists, HEK293/Gα15/SSTR4 cells; type: cell-based; conditions: read-out: SSTR4 Agonist Activity in FLIPR Assay EC50
T1 construct: host or cells: HEK293/Gα15/SSTR4
T1 sequence (P31391 whole entry): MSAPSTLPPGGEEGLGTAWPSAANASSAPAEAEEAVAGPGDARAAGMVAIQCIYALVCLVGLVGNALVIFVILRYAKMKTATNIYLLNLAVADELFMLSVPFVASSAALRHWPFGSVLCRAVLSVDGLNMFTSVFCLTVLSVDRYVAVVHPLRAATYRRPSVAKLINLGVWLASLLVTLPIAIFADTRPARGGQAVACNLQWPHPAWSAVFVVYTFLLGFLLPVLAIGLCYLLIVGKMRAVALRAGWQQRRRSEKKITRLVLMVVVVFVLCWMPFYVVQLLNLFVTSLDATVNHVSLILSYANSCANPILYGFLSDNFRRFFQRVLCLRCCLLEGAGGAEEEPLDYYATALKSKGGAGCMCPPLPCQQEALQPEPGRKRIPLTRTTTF
Procedure: The study was carried out at HD Biosciences (Shanghai, China) according to the following steps.
Step 1: Test compounds were diluted to a 400×stock solution in DMSO in a 384-well plate.
Step 2: 1 μL of the compound solution was transferred from Step 1 to 79 μL of assay buffer, creating a 5×working solution in the 384-well plate using the Bravo method.
Step 3: HEK293/Gα15/SSTR1-5 cells were cultured in DMEM medium (10% FBS).
Step 4: When cells reached 80% confluence, the cells were separated using 0.25% trypsin-EDTA.
Step 5: The cell density was measured and the cells diluted to 1×10^6/mL using DMEM (10% FBS).
Step 6: 30 μL of cells were dispensed into each well of a Matrigel-coated 384-well plate (Corning 3764#) using a multi-channel pipette (30,000 cells per well) and cultured for 20-24 hours at 37° C. and 5% CO2.
Step 7: 10 μL of dye was added to each well in the cell plate prepared in Step 6.
Step 8: The dye and cells were incubated in the dark at 37° C. and 5% CO2 for 1 hour.
Step 9: After 1 hour, the FLIPR program was loaded, the pipette tips placed cell plate and compound plate (from Step 2) into the machine, and the run button was pressed. The program added 10 μL to 40 μL to the cell plate. FLIPR was used to read the plate at room temperature according to the specified settings and the data was saved.

KM mice = assay: Acetic acid induced writhing test; type: in vivo; conditions: 30 mg/kg s.c.; for No. of writhing's: 0.6% acetic acid 15 min after dosing, 30-minute period; for Percentage of Inhibition / Significant compared to the model group: writhing
Procedure: Fifteen minutes after administration, a 0.6% acetic acid solution (5 mL/kg) was injected into the abdominal cavity. The mice were then placed in an observation box, and the number of writhing episodes was recorded within a 30-minute period. The assessment of pain intensity was based on the observation of the mice's writhing behavior.

In vivo PK study = conditions: po, 3 mg/kg p.o.

Compound	Changes in Foot Swelling Rate (Mean ± SEM) (SD rats; 0 h (before modeling)) [%]	Foot Swelling Degrees (Mean ± SEM) (SD rats; 0 h (before modeling)) [mm]	Changes in Foot Swelling Rate (Mean ± SEM) (SD rats; 2 h after modeling) [%]	Foot Swelling Degrees (Mean ± SEM) (SD rats; 2 h after modeling) [mm]	Changes in Foot Swelling Rate (Mean ± SEM) (SD rats; 4 h after modeling) [%]	Foot Swelling Degrees (Mean ± SEM) (SD rats; 4 h after modeling) [mm]	Changes in Foot Swelling Rate (Mean ± SEM) (SD rats; 7 h after modeling) [%]	Foot Swelling Degrees (Mean ± SEM) (SD rats; 7 h after modeling) [mm]	No. of writhing's (KM mice)	Percentage of Inhibition (KM mice) [%]	Significant compared to the model group (KM mice)	also measured
CC(C)C[C@H](CN)CC(=O)O [Pregabalin]	0	4.06 ± 0.07	41.54 ± 1.45	5.74 ± 0.09	35.68 ± 2.85	5.49 ± 0.09	37.64 ± 2.63	5.58 ± 0.13	–	–	–	–
CC(C)(NC(=O)[C@@H]1[C@@H]2CNC[C@H]1C2)c1ncc2c(Br)cccn12 [Compound 3, (1R,5S,6s)-N-(2-(8-bromoimidazo[1,5-a]pyridin-3-yl)propan-2-yl)-3-azabicyclo[3.1.1]heptane-6-carboxamide]	–	–	–	–	–	–	–	–	–	–	–	EC50 (SSTR4): > 1 µM
CC(C)(NC(=O)[C@@H]1[C@@H]2C[C@H]1CN(C(=N)N)C2)c1ncc2c(Cl)cccn12 [Compound 21, (1R,5S,6r)-3-carbamimidoyl-N-(2-(8-chloroimidazo[1,5-a]pyridin-3-yl)propan-2-yl)-3-azabicyclo[3.1.1]heptane-6-carboxamide]	–	–	–	–	–	–	–	–	9	71	Yes	–
CC(=O)Oc1ccccc1C(=O)O [Aspirin]	0	4.08 ± 0.10	33.44 ± 4.56	5.42 ± 0.11	24.42 ± 6.86	5.05 ± 0.21	19.72 ± 3.24	4.87 ± 0.07	–	–	–	–
CC(C)(NC(=O)[C@@H]1[C@@H]2C[C@H]1CN(C(=N)N)C2)c1nc(C2CC2)c2ccccn12 [Compound 22, (1R,5S,6r)-3-carbamimidoyl-N-(2-(1-cyclopropylimidazo[1,5-a]pyridin-3-yl)propan-2-yl)-3-azabicyclo[3.1.1]heptane-6-carboxamide]	–	–	–	–	–	–	–	–	7 ± 2	82.45 ± 5.13	Yes	AUC(0-t) (In vivo PK study): 1.3 ng·h/mL; Cmax (In vivo PK study): 5.56 ng/mL; MRT inf (In vivo PK study): 11.4 min; Tmax (In vivo PK study): 11.4 min
COc1ccc(-c2cccn3c(C(C)(C)NC(=O)[C@H]4[C@@H]5CNC[C@H]4C5)ncc23)cc1 [Compound 12, (1R,5S,6r)-N-(2-(8-(4-methoxyphenyl)imidazo[1,5-a]pyridin-3-yl)propan-2-yl)-3-azabicyclo[3.1.1]heptane-6-carboxamide]	–	–	–	–	–	–	–	–	10	54.16	Yes	–
